This passage reports Kd results from paper PMC7893202 (Acta Pharmaceutica Sinica. B, 2020).

For this assay, the target named is T1, estrogen receptor-alpha (ERα) (Homo sapiens, UniProt P03372).
T1 sequence (P03372 311-547 limits assumed): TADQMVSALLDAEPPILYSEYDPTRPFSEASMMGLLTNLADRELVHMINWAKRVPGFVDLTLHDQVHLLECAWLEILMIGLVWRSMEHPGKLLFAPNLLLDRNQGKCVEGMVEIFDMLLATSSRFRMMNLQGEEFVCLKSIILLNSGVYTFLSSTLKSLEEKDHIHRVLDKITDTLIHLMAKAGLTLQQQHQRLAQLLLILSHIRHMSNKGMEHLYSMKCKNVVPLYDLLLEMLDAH
Put plainly: fluorescence titration. It is filed as binding.

For orientation: Kd means the free concentration of one partner at which half of the binding sites on the other are occupied at equilibrium, for simple one-to-one binding. In the case of `Cc1cc(O)cc2oc3cc(O)cc(O)c3c(=O)c12` [compound 1, norlichexanthone], the Kd amounted to 10 nM.
